The source of these data is patent US11505539B2, “Deuterated compounds as inhibitors of the BCL6 BTB domain protein-protein interaction and/or as BCL6 degraders” (Ontario Institute for Cancer Research (OICR), priority 2017, dated 2022).

The nature of series [1]: Liver microsomal metabolic stability, human. It counts as in vitro ADME. Conditions: % remaining after 60 min, 1 μM compound, 0.5 mg/mL protein. The method, then:
(§1) (f) Microsomal Stability Assays
(§2) Liver Microsomal Metabolic Stability
(§3) Working stocks were initially diluted to a concentration of 40.0 μM in 0.1 M potassium phosphate buffer (pH 7.4) before addition to the reaction vials. CD-1 mouse (male) or pooled human liver microsomes (Corning Gentest) were utilized at a final concentration of 0.5 mg/mL (protein). Duplicate wells were used for each time point (0 and 60 minutes). Reactions were carried out at 37° C. in an orbital shaker at 175 rpm, and the final DMSO concentration was kept constant at 0.1%. The final volume for each reaction was 100 μL, which includes the addition of an NADPH-Regeneration Solution (NRS) mix. This NRS mix is comprised of glucose 6-phosphate dehydrogenase, NADP+, MgCl2, and glucose 6-phosphate. Upon completion of the 60 minute time point, reactions were terminated by the addition of 2-volumes (200 μL) of ice-cold, acetonitrile containing 0.5% formic acid and internal standard. Samples were then centrifuged at 4,000 rpm for 10 minutes to remove debris and precipitated protein. Approximately 150 μL of supernatant was subsequently transferred to a new 96 well microplate for LC/MS analysis:
(§4) Narrow-window mass extraction LC-MS analysis was performed for all samples in this study using a Waters Xevo quadrupole time-of-flight (QTof) mass spectrometer to determine relative peak areas of test compounds. The percent remaining values are calculated using the following equations: % remaining=(A)/A0×100
(§5) A is area response after incubation
(§6) A0 is area response at initial time point

The nature of series [2]: Liver microsomal metabolic stability, mouse. The format is in vitro ADME. Conditions: % remaining after 60 min, 1 μM compound, 0.5 mg/mL protein. On the procedure: as §1, §2, §3, §4, §5, §6
In general terms: Liver microsomes are a subcellular fraction often used to study metabolism.

The nature of series [3]: Microsomal intrinsic clearance assay. It counts as in vitro ADME. Conditions: pH 7.4, liver microsomes 0.5 mg/mL, species (mouse or human) not given; for microsomal CLint at 1 μM: read-out: Clint (μL/min/mg protein). The method, then:
CD-1 mouse (male) or pooled human liver microsomes (Corning Gentest) were utilized at a final concentration of 0.5 mg/mL (protein). 12.5 μL of each drug solution were placed into a well of 96 well plate. Reactions were initiated by the addition of activated microsome solutions (500 μL) to drug solutions. Reactions were carried out at 37° C. in an orbital shaker at 175 rpm, and the final DMSO concentration was kept constant at 0.1%. Test compounds were incubated at a final concentration of 1 μM. 50 μL of aliquots of reaction mixtures were quenched by mixing with two parts of stop solution (internal standard containing 0.5% formic acid in acetonitrile) at appropriate time-points and mixed well. Then, solutions were centrifuged at 4000 rpm for 10 min. Supernatants were transferred to a new 96-well plate and analyzed by a Waters Q-TOF mass spectrometer coupled with an UPLC System. Recovery analysis was performed using relative peak areas and narrow window mass extraction.
The ln(% remaining) is plotted against time and the gradient of the line determined. Elimination Constant (k)=−slope Half-life (t½)(min)=ln 2/k=0.693/k V (μL/mg)=volume of incubation (μL)/protein in the incubation (mg) Intrinsic Clearance (CLint)(μL/min/mg protein)=V·0.693/t½=V·k

The conditions of series [4]: as reported; limits use in animal studies; cited from earlier work.
Series [5] deals with T1, BTB domain of BCL6 / SMRT BBD peptide (Homo sapiens, UniProt P41182).
T1 construct: Thioredoxin-His6-STag-TEV-biotinylation-thrombin-BCL6 amino acids 1-129
Nature of the series: BCL6-BTB - SMRT peptide inhibition fluorescence polarization (FP) screen. The format is binding. Conditions: 1.25 uM BCL6-BTB, 20 nM Bodipy-TMR SMRT peptide probe; lower limit of assay 1 uM. The method, then:
(a) BCL6-BTB—SMRT Peptide Inhibition Fluorescence Polarization (FP) Screen
Compounds were dissolved in 100% DMSO at 10 mM, assayed fresh, and then stored at −20° C. for repeat studies and future work. The reaction mixture consists of 1.25 uM of the 25 kd BCL6-BTB domain (Thioredoxin-His6-STag-TEV-biotinylation-thrombin-BCL6 amino acids 1-129) plus 20 nM of the peptide probe Ac-GSLVATVKEAGRSIHEIPA (SEQ ID NO: 1) with 16 amino acid peptide from the SMRT BBD (1414-1429) with a Bodipy-TMR fluorescent label on the lysine. […] 20 ul of this assay mixture was added to each well of the 384 well plates with the exception of the control wells that contained no protein (for setting the minimum FP value). Compounds were directly sprayed using an HP D300 Digital Dispenser from 10 mM DMSO stocks onto black 384 well plates (greiner bio-one #781900) in a concentration range from 1 uM to 500 uM (10 points in duplicate). The assay was equilibrated for 1 hour prior to reading the FP values (Ex 540 nm/Em 580 nm) with a Perkin Elmer Envision plate reader. The results were curve fitted and IC50 values were calculated using the BioAssay software from CambridgeSoft.
Background: Fluorescence polarisation rises when a labelled molecule tumbles more slowly, as on binding a larger partner.

For the next series, the target named is T2, BCL6 BTB domain (Homo sapiens, UniProt P41182).
T2 construct: BCL6 BTB domain (biotin-thrombin-BCL6 amino acids 1-129; 17 kd); Thioredoxin-His6-STag (N, cleaved yes); made in house
Nature of the series: Surface plasmon resonance (SPR) assay. The format is binding. Conditions: Biacore T200, single cycle kinetics. On the procedure: (b) Surface Plasmon Resonance (SPR) Assay
SPR studies were performed using a Biacore™ T200 instrument (GE Health Sciences Inc.). The BCL6 BTB protein used in the FP assay was biotinylated using the site specific biotinylating enzyme BirA, and then cleaved with TEV protease to produce the BCL6 BTB domain (biotin-thrombin-BCL6 amino acids 1-129; 17 kd) that was use in SPR. This protein was stably captured (1000RU) to streptavidin coupled SA chips (BR-1005-31, GE Health Sciences Inc.) according to the manufacture's protocol. Compounds were dissolved in 100% DMSO at 10 mM and 2-fold serial dilutions were done in 100% DMSO. For SPR analysis the serially titrated compounds were diluted 1/20 into buffer (10 mM HEPES pH7.4, 150 mM NaCl, 0.05% Tween-20, 3 mM EDTA) giving a final concentration of 5% DMSO. The Biacore flow rate was set at 100 ul/min. For KD determinations, single cycle kinetic analysis was performed with an on time of 60 seconds, and an off time of 300 seconds. Curve fitting and KD calculations were done with the Biacore T200 Evaluation software (GE Health Sciences Inc).
For orientation: SPR reads the build-up and loss of mass on a sensor chip optically.

Series [6] deals with SuDHL4-3xBCL6-TK-Luc cells. The series can be described thus: Cell-based BCL6 reporter luciferase assay. To be noted: Homo sapiens, SU-DHL-4, 48 h, two days. On the procedure: (c) Cell-Based Luciferase Assay:
A BCL6 reporter construct containing three copies of the consensus BCL6 binding site, the TK promoter, and the firefly luciferase gene was stably expressed in SuDHL4 cells after lentivirus infection and selection with Blasticidin. SuDHL4-3×BCL6-TK-Luc cells were seeded into a Viewplate 384-well assay dish at 15,000 cells/well in 25 ul medium (Alpha-MEM high glucose containing 10% FBS, 25 mM HEPES, […] GlutaMAX, 100 ug/ml Normocin, and […] Gentamycin, Invitrogen). A HP D300 digital dispenser was used to dose cells with DMSO or test compounds across a 10-point range of concentrations (high dose of 10 uM), and cultures were grown in a humidified 5% CO2 incubator at 37° C. After two days, plates were removed from incubator and equilibrated to room temperature. An equal volume of neolite reporter gene assay reagent was added to each well, and samples were processed according to manufacturer's instructions (Perkin Elmer). Luminescent signal was measured using an Envision plate reader equipped with a US-Luminescence detector.

The test system of another series is Karpas422 cells. The series can be described thus: Tumor cell growth inhibition assay. The format is cell-based. To be noted: Homo sapiens, KARPAS-422, 144 h; Karpas422, six days, ATPlite; read-out: GI Karpas EC50. The method, then:
(d) Tumor Cell Growth inhibition Assay:
Karpas422 cells were seeded into a 96-well plate at 2,000 cells/well in 150 ul medium (Alpha-MEM containing 10% FBS, […] Normocin, and […] Gentamycin, Invitrogen). A HP D300 digital dispenser was used to dose cells with DMSO or test compounds across a 10-point range of concentrations (high dose of 5 uM), and cultures were grown in a humidified 5% CO2 incubator at 37° C. After six days, plates were removed from incubator and equilibrated to room temperature. An equal volume of ATPlite assay reagent was added to each well, and samples were processed according to manufacturer's instructions (Perkin Elmer). Luminescent signal was measured using an Envision plate reader equipped with a US-Luminescence detector.

What is called half-life is how long it takes for the measured level to halve. The IC50 is the concentration needed to halve the response being measured. Usually Kd stands for a measure of binding affinity in units of concentration. A high value points to weaker binding. The EC50 is the concentration needed to bring the measured effect to its halfway point.

On to `CNC(=O)COc1cc2cc(Nc3nc(N4C[C@H](C)C[C@H](C)C4)ncc3Cl)ccc2n(C)c1=O` [BI-3802, reference compound], for which the “Human Liver Microsomes (HLM, % @ 1 h)” value in series [1] was found to be 25%. In series [2], the “Mouse Liver Microsomes (MLM, % @ 1 h)” value was found to be 13%. In series [3], the half-life at 1 μM is 12 min and the microsomal CLint at 1 μM came out at 112 µL/min/mg. Also, in series [4], the bioavailability entry is on record as “poor bioavailability”.
In series [5], `[2H]C([2H])([2H])NC(=O)C([2H])([2H])Oc1cc2cc(Nc3nc(N4C[C@H](C)C[C@H](C)C4)ncc3Cl)ccc2n(C)c1=O` [Example Ia, 2-((6-((5-chloro-2-((3R,5S)-3,5-dimethylpiperidin-1-yl)pyrimidin-4-yl)amino)-1-methyl-2-oxo-1,2-dihydroquinolin-3-yl)oxy)-N-(methyl-d3)acetamide-2,2-d2] showed a half-maximal inhibitory concentration (IC50) of at most 1000 nM. The compound further showed a dissociation constant Kd on BCL6 BTB domain of 4.56 nM. Besides, the IC50 in series [6] amounted to 46.6 nM. Further, the EC50 with Karpas422 cells came to 14.1 nM. In series [1], the “Human Liver Microsomes (HLM, % @ 1 h)” value turned out to be 26%. For the same compound, the “Mouse Liver Microsomes (MLM, % @ 1 h)” value in series [2] came to 8%. Also, in series [3], the half-life at 1 μM worked out at 29 min and the microsomal CLint at 1 μM was determined as 48 µL/min/mg.
In turn, `[2H]C([2H])([2H])NC(=O)C([2H])([2H])Oc1cc2cc(Nc3nc(N4C[C@@H](C)C(F)(F)[C@@H](C)C4)ncc3Cl)ccc2n(C)c1=O` [Ib] returned an IC50 in series [5] of at most 900 nM. The Kd on BCL6 BTB domain worked out at 4.53 nM. In series [6], this compound gave an IC50 of 7.57 nM. Moreover, in the series with Karpas422 cells, the 50% effective concentration (EC50) was 5.04 nM. In series [1], the “Human Liver Microsomes (HLM, % @ 1 h)” value turned out to be 100%. For the same compound, in series [2], the “Mouse Liver Microsomes (MLM, % @ 1 h)” value amounted to 91%. Further, in series [3], the half-life at 1 μM was 82 min and the microsomal CLint at 1 μM turned out to be 17 µL/min/mg.
